Source: ChEMBL document CHEMBL1138121 (Bioorg Med Chem Lett, 2006)

Biological target: T1, Glycogen phosphorylase, muscle form (Oryctolagus cuniculus, UniProt P00489)
T1 sequence (P00489 whole entry): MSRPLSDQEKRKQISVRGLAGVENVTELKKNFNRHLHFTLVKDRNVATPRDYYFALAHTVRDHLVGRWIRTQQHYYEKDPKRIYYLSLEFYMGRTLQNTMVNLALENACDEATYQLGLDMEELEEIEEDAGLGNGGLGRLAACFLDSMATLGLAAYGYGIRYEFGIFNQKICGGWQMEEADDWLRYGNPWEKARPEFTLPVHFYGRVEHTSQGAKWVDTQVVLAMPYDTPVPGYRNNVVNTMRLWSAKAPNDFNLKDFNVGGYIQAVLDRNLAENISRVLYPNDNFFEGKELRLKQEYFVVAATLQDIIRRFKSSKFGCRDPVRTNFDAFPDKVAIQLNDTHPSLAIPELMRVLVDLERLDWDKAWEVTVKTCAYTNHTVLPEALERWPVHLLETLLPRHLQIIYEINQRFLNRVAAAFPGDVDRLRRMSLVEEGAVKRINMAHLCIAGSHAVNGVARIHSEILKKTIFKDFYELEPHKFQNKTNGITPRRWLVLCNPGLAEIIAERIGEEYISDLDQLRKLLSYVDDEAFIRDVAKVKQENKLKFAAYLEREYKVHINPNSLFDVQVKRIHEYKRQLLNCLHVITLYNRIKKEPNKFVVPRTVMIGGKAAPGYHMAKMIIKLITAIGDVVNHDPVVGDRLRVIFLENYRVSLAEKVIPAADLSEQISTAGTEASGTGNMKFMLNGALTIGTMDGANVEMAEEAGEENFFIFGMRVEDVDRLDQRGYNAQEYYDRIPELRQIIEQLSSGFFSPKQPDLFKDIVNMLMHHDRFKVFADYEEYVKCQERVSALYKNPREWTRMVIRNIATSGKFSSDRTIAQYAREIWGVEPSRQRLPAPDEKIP
Assay: Inhibitory activity against rabbit muscle GPa
Assay type: tissue-based, Muscle tissue

Structure (SMILES) | IC50
CC(=O)O[C@@H]1C[C@]2(C)[C@H]3CC=C4[C@@H]5CC(C)(C)CC[C@]5(C(=O)OCc5ccccc5)CC[C@@]4(C)[C@]3(C)CC[C@H]2C(C)(C)[C@H]1O | 80 µM
CC1(C)CC[C@]2(C(=O)OCc3ccccc3)CC[C@]3(C)C(=CC[C@@H]4[C@@]5(C)C[C@@H](O[Si](C)(C)C(C)(C)C)[C@H](O)C(C)(C)[C@@H]5CC[C@]43C)[C@@H]2C1 | 1710 µM
CC(=O)O[C@@H]1C[C@]2(C)[C@H]3CC=C4[C@@H]5CC(C)(C)CC[C@]5(C(=O)OCc5ccccc5)CC[C@@]4(C)[C@]3(C)CC[C@H]2C(C)(C)C1=O | 29 µM
CC1(C)CC[C@]2(C(=O)OCc3ccccc3)CC[C@]3(C)C(=CC[C@@H]4[C@@]5(C)C[C@@H](O)C(=O)C(C)(C)[C@@H]5CC[C@]43C)[C@@H]2C1 | 29 µM
CC1(C)CC[C@]2(C(=O)OCCN3CCOCC3)CC[C@]3(C)C(=CC[C@@H]4[C@@]5(C)C[C@@H](O)[C@H](O)C(C)(C)[C@@H]5CC[C@]43C)[C@@H]2C1 | 43 µM
CC(=O)O[C@@H]1C[C@]2(C)[C@H]3CC=C4[C@@H]5CC(C)(C)CC[C@]5(C(=O)OCc5ccccc5)CC[C@@]4(C)[C@]3(C)CC[C@H]2C(C)(C)[C@@H]1O | 63 µM
CC1(C)CC[C@]2(C(=O)OCc3ccccc3)CC[C@]3(C)C(=CC[C@@H]4[C@@]5(C)C[C@@H](O)[C@@H](O)C(C)(C)[C@@H]5CC[C@]43C)[C@@H]2C1 | 66 µM
CC1(C)CC[C@]2(C(=O)OCCBr)CC[C@]3(C)C(=CC[C@@H]4[C@@]5(C)C[C@@H](O)[C@H](O)C(C)(C)[C@@H]5CC[C@]43C)[C@@H]2C1 | 50 µM
CC1(C)CC[C@]2(C(=O)OCC(=O)O)CC[C@]3(C)C(=CC[C@@H]4[C@@]5(C)C[C@@H](O)[C@H](O)C(C)(C)[C@@H]5CC[C@]43C)[C@@H]2C1 | 1650 µM
COC(=O)[C@]12CCC(C)(C)C[C@H]1C1=CC[C@@H]3[C@@]4(C)C[C@@H](O)[C@H](O)C(C)(C)[C@@H]4CC[C@@]3(C)[C@]1(C)CC2 [MASLINIC ACID METHYL ESTER] | 393 µM
CC1(C)CC[C@]2(C(=O)OCc3ccccc3)CC[C@]3(C)C(=CC[C@@H]4[C@@]5(C)C=C(O)C(=O)C(C)(C)[C@@H]5CC[C@]43C)[C@@H]2C1 | 30 µM
CC1(C)CC[C@]2(C(=O)OCCN3CCCCC3)CC[C@]3(C)C(=CC[C@@H]4[C@@]5(C)C[C@@H](O)[C@H](O)C(C)(C)[C@@H]5CC[C@]43C)[C@@H]2C1 | 31 µM
CC1(C)CC[C@]2(C(=O)OCCCCN3CCOCC3)CC[C@]3(C)C(=CC[C@@H]4[C@@]5(C)C[C@@H](O)[C@H](O)C(C)(C)[C@@H]5CC[C@]43C)[C@@H]2C1 | 121 µM
CC1(C)CC[C@]2(C(=O)OCCO)CC[C@]3(C)C(=CC[C@@H]4[C@@]5(C)C[C@@H](O)[C@H](O)C(C)(C)[C@@H]5CC[C@]43C)[C@@H]2C1 | 153 µM
CCN(CC)CCCCOC(=O)[C@]12CCC(C)(C)C[C@H]1C1=CC[C@@H]3[C@@]4(C)C[C@@H](O)[C@H](O)C(C)(C)[C@@H]4CC[C@@]3(C)[C@]1(C)CC2 | 62 µM
CC1(C)CC[C@]2(C(=O)OCCCCBr)CC[C@]3(C)C(=CC[C@@H]4[C@@]5(C)C[C@@H](O)[C@H](O)C(C)(C)[C@@H]5CC[C@]43C)[C@@H]2C1 | 7 µM
CCN(CC)CCOC(=O)[C@]12CCC(C)(C)C[C@H]1C1=CC[C@@H]3[C@@]4(C)C[C@@H](O)[C@H](O)C(C)(C)[C@@H]4CC[C@@]3(C)[C@]1(C)CC2 | 51 µM
CC1(C)CC[C@]2(C(=O)OCn3cccn3)CC[C@]3(C)C(=CC[C@@H]4[C@@]5(C)C[C@@H](O)[C@H](O)C(C)(C)[C@@H]5CC[C@]43C)[C@@H]2C1 | 66 µM
CC1(C)CC[C@]2(C(=O)OCCCCN3CCCCC3)CC[C@]3(C)C(=CC[C@@H]4[C@@]5(C)C[C@@H](O)[C@H](O)C(C)(C)[C@@H]5CC[C@]43C)[C@@H]2C1 | 580 µM
CC1(C)CC[C@]2(C(=O)OCc3ccccc3)CC[C@]3(C)C(=CC[C@@H]4[C@@]5(C)C[C@@H](O[Si](C)(C)C(C)(C)C)[C@@H](O)C(C)(C)[C@@H]5CC[C@]43C)[C@@H]2C1 | 580 µM
CCOC(=O)COC(=O)[C@]12CCC(C)(C)C[C@H]1C1=CC[C@@H]3[C@@]4(C)C[C@@H](O)[C@H](O)C(C)(C)[C@@H]4CC[C@@]3(C)[C@]1(C)CC2 | 19 µM
